Assay results from PMC8147781, “Discovery of Pyrrolidine-2,3-diones as Novel Inhibitors of P. aeruginosa PBP3” (Antibiotics, 2021).
In brackets after ≈: the same amount, converted by molar mass.

Columns and labels:
S. aureus 133 = assay: MIC broth microdilution, S. aureus; assay type: cell-based; details: Staphylococcus aureus, 133, 18 h; PMBN 0 µg/mL, control compounds
Method: (§1) MIC determination was performed via standard broth microdilution according to the Clinical & Laboratory Standards institute guidelines. Overnight colonies grown on BD-Columbia agar with 5% Sheep Blood (Becton Dickinson, Franklin Lakes, NJ, USA), were diluted in Mueller Hinton Broth 2 cation adjusted (MH+) medium (Thermo Fisher Scientific) to a concentration of 5 × 10^5 CFU/mL. Serial dilutions (1:2) of test compounds were incubated at 37 °C with 5 × 10^4 bacteria in a final volume of 100 μL. Sterile and growth controls in the presence of 1% DMSO and PMBN if the case, and the positive controls, aztreonam (AZT) and tigecycline (TIG) were included in the experiments (Table S4). The MICs were determined visually after 18 h at 37 °C and confirmed by the addition of 10% PrestoBlue (ThermoFisher Scientific) reagent according to the manufacture’s protocol. The fluorescence signal of PrestoBlue reagent was measured at Ex/Em: 550/595 nm after 30 min incubation at 37 °C using at a ClarioStar microplate reader (BMG Labtech). PrestoBlue reduction occurs in the presence of living cells and consequently turns red in colour and is highly fluorescent.

[1] = test system: P. aeruginosa K2896 ΔmexBΔmexXYΔmexCD-oprJ; assay: MIC broth microdilution, P. aeruginosa K2896 efflux mutant; assay type: cell-based, Pseudomonas aeruginosa
Excerpt: (§2) The results presented above implied that seven pyrrolidine-2,3-dione derivatives inhibited the activity of ^PaPBP3 in vitro. Consequently, we were very interested in investigating the potential of these compounds to affect the growth of P. aeruginosa. Two P. aeruginosa bacterial strains (the wild-type PAO1 and the isogenic ΔmexB ΔmexX ΔmexCD-oprJ efflux pump mutant) were used to determine the MIC and the potential role of the main P. aeruginosa efflux systems in compound uptake. To increase the antibacterial sensitivity of the tested P. aeruginosa isolates to the potential inhibitors, we performed MIC experiments in the presence and absence of a sub-MIC concentration (4 µg/mL) of the outer membrane permeabilising polymyxin B nonapeptide (PMBN). […] Thus, we concluded that the physicochemical properties of the pyrrolidine-2,3-dione compounds were perhaps not yet favourable enough to cross the P. aeruginosa cell envelope without a permeabiliser because of their high hydrophobicity.
(§3) The wild-type P.aeruginosa PAO1 and the isogenic P. aeruginosa K2896 ΔmexBΔmexXYΔmexCD-oprJ isolates were used to determine the MIC in the presence and absence of PMBN [48].
as §1

[2] = test system: K. pneumoniae clinical isolate; assay: MIC broth microdilution, K. pneumoniae; assay type: cell-based; details: control compounds
Method: as §1

[3] = test system: P. aeruginosa PAO1 (wild-type strain); assay: MIC broth microdilution, P. aeruginosa PAO1; assay type: cell-based, Pseudomonas aeruginosa
Excerpt: as §2, §3, §1

E. coli Neumann = assay: MIC broth microdilution, E. coli; assay type: cell-based; details: Escherichia coli; PMBN 0 µg/mL, control compounds; read-out: MIC (µM) E. coli Newmann
Method: as §1

B. subtilis 168 = assay: MIC broth microdilution, B. subtilis; assay type: cell-based; details: Bacillus subtilis, 168, 18 h; PMBN 0 µg/mL, control compounds
Method: as §1

A. baumannii ATCC15308 = assay: MIC broth microdilution, A. baumannii; assay type: cell-based; details: Acinetobacter baumannii, control compounds
Method: as §1

S. pneumoniae = assay: MIC broth microdilution, S. pneumoniae; assay type: cell-based; details: Streptococcus pneumoniae, 18 h; PMBN 0 µg/mL, control compounds; read-out: MIC (µM) S. pneumoniae
Method: as §1

Question: Which MIC (S. aureus 133) does the source give for `CN(C)c1cc(NC(=O)CNC(C)(C)C)c(O)c2c1C[C@H]1C[C@H]3[C@H](N(C)C)C(O)=C(C(N)=O)C(=O)[C@@]3(O)C(O)=C1C2=O` [Tygecyclin, tigecycline, reference compound] here?
Answer: 0.2 µM (≈ 0.117 µg/mL)

Question: And the MIC ([1]; Pseudomonas aeruginosa, read-out: MIC (µM) P. aeruginosa K2896)?
Answer: 0.8 µM (≈ 0.469 µg/mL)

Question: What about the “MIC (µM) against P. aeruginosa K28926” value ([1]; ΔmexB, ΔmexX, ΔmexCD-oprJ, with 4 µg/mL PMBN) of the same molecule?
Answer: 0.2 µM (≈ 0.117 µg/mL)

Question: And the MIC ([2]; PMBN 0 µg/mL)?
Answer: 0.9 µM (≈ 0.527 µg/mL)

Question: What about the MIC ([2]; PMBN 50 µg/mL) of the same molecule?
Answer: 0.4 µM (≈ 0.234 µg/mL)

Question: What about the MIC ([3]; Pseudomonas aeruginosa, PAO1, PMBN 0 µg/mL (absence of PMBN)) of the same molecule?
Answer: > 4 µM

Question: And the “MIC (µM) against P. aeruginosa PAO1” value ([3]; wild-type strain, with 4 µg/mL PMBN)?
Answer: 0.4 µM (≈ 0.234 µg/mL)

Question: What about the MIC (E. coli Neumann) of the same molecule?
Answer: 0.4 µM (≈ 0.234 µg/mL)

Question: What about the MIC (B. subtilis 168) of the same molecule?
Answer: 0.2 µM (≈ 0.117 µg/mL)

Question: And the MIC (A. baumannii ATCC15308; ATCC15308, PMBN 0 µg/mL)?
Answer: 0.9 µM (≈ 0.527 µg/mL)

Question: And the MIC (A. baumannii ATCC15308; ATCC15308, PMBN 50 µg/mL)?
Answer: 0.4 µM (≈ 0.234 µg/mL)

Question: What about the MIC (S. pneumoniae) of the same molecule?
Answer: 0.1 µM (≈ 0.0586 µg/mL)
